Results from EP4621409A1, “NOVEL ANTIVIRAL PEPTIDE” (Daehannupharm Co., Ltd., priority 2022, dated 2024).
Read-outs that look alike come from different tables or passages of the source. No end group written: not given here.

Columns and labels:
dengue virus = conditions: for IC50: dengue virus incubated with peptide 37°C 1 hour, Vero cells, 2 days, triplicate
Procedure: The inoculated cells were cultured overnight.
The SP-049 peptide was prepared such that the maximum concentration was 125 nM and the minimum concentration was 0.98 nM (concentrations: 125 nM; 62.5 nM; 31.25 nM; 15.62 nM; 7.81 nM; 3.91 nM; 1.95 nM; and 0.98 nM).
The present inventors calculated the inhibition rate (% inhibition) of each well based on the formula of the standard curve by converting the average Ct value of wells infected with dengue virus without peptide treatment in the same plate into an infection rate of 100%, and using this to create a standard curve. Each value was obtained through three repeated experiments (in triplicate), and IC50 values were derived using GraphPad Prism 5 software.

HCV = conditions: Table 1 in Cheng, Guofeng, et al.; cited from earlier work

| Sequence | IC50 (SARS-CoV-2 virus) [µM] | % Inhibition (dengue virus; Conc. 7.81 nM) [%] | % Inhibition (dengue virus; Conc. 15.63 nM) [%] | % Inhibition (dengue virus; Conc. 31.25 nM) [%] | % Inhibition (dengue virus; Conc. 62.50 nM) [%] | % Inhibition (dengue virus; Conc. 125.00 nM) [%] | IC50 (dengue virus) [µM] | further results |
| --- | --- | --- | --- | --- | --- | --- | --- | --- |
| SWKEIVNLLYELLASLIR [SP-101, SWKEIVNLLYELLASLIR] | 11.6 | -14.11 | 20.94 | 0.96 | 23.20 | 65.09 | 0.1 | % Inhibition (dengue virus; Conc. 250.00 nM): 97.07%; % Inhibition (dengue virus; Conc. 500.00 nM): 100.00%; % Inhibition (dengue virus; Conc. 1000.00 nM): 100.00% |
| WDCVQDIWEYIFRTAMKI [SP-185, WDCVQDIWEYIFRTAMKI] | – | – | – | – | – | – | 0.519 | % Inhibition (dengue virus; Conc. 39.06 nM): -7.43%; % Inhibition (dengue virus; Conc. 78.13 nM): 11.76%; % Inhibition (dengue virus; Conc. 156.25 nM): 36.60%; % Inhibition (dengue virus; Conc. 312.50 nM): 33.04%; % Inhibition (dengue virus; Conc. 625.00 nM): 51.77%; % Inhibition (dengue virus; Conc. 1250.00 nM): 89.53%; % Inhibition (dengue virus; Conc. 2500.00 nM): 100.00%; % Inhibition (dengue virus; Conc. 5000.00 nM): 100.00% |
| SFLDIVWSIIDIFKEFCK [SP-003, SFLDIVWSIIDIFKEFCK] | 10.3 | -6.03 | 38.56 | 71.23 | 63.98 | 99.91 | 0.022 | % Inhibition (dengue virus; Conc. 250.00 nM): 100.00%; % Inhibition (dengue virus; Conc. 500.00 nM): 100.00%; % Inhibition (dengue virus; Conc. 1000.00 nM): 100.00% |
| QSFLDIVWSIIDIFKEFC [SP-004, QSFLDIVWSIIDIFKEFC] | 8.9 | -1.96 | 6.56 | 9.23 | 22.45 | 34.78 | 0.207 | % Inhibition (dengue virus; Conc. 250.00 nM): 61.21%; % Inhibition (dengue virus; Conc. 500.00 nM): 99.95%; % Inhibition (dengue virus; Conc. 1000.00 nM): 100.00% |
| FTNFHRQLFCWIDKWIDL [SP-191, FTNFHRQLFCWIDKWIDL] | – | – | – | – | – | – | 0.776 | % Inhibition (dengue virus; Conc. 39.06 nM): -20.14%; % Inhibition (dengue virus; Conc. 78.13 nM): -14.44%; % Inhibition (dengue virus; Conc. 156.25 nM): 5.32%; % Inhibition (dengue virus; Conc. 312.50 nM): 46.78%; % Inhibition (dengue virus; Conc. 625.00 nM): 29.53%; % Inhibition (dengue virus; Conc. 1250.00 nM): 64.10%; % Inhibition (dengue virus; Conc. 2500.00 nM): 98.50%; % Inhibition (dengue virus; Conc. 5000.00 nM): 99.99% |
| FSFWVWLDNIIDLVKKYI [SP-114, FSFWVWLDNIIDLVKKYI] | 19.5 | – | – | – | – | – | – | – |
| WSEILREFLNLISLIWSR [SP-110, WSEILREFLNLISLIWSR] | 19.5 | – | – | – | – | – | – | – |
| DVTRLLELILDVLAYIIS [SP-151, DVTRLLELILDVLAYIIS] | 5 | – | – | – | – | – | – | – |
| ILVRWLSHFFEYLDRFYT [SP-221, ILVRWLSHFFEYLDRFYT] | 19.5 | – | – | – | – | – | – | – |
| ESLKNFWESLWKFFTHFF [SP-001, ESLKNFWESLWKFFTHFF] | – | -0.47 | 45.60 | 57.96 | 78.78 | 82.51 | 0.0226 | % Inhibition (dengue virus; Conc. 250.00 nM): 100.00%; % Inhibition (dengue virus; Conc. 500.00 nM): 100.00%; % Inhibition (dengue virus; Conc. 1000.00 nM): 100.00% |
| DKIVLFILSILEKIYNLL [SP-171, DKIVLFILSILEKIYNLL] | 18.7 | – | – | – | – | – | – | – |
| ILDFFVGFIDWLVRYLNK [SP-046, ILDFFVGFIDWLVRYLNK] | 7.9 | 15.33 | – | 100.00 | 100.00 | 100.00 | 0.0177 | % Inhibition (dengue virus; Conc. 0.98 nM): 3.30%; % Inhibition (dengue virus; Conc. 1.95 nM): 3.30%; % Inhibition (dengue virus; Conc. 3.91 nM): 5.60%; % Inhibition (dengue virus; Conc. 15.62 nM): 36.10% |
| DWLRIIWDWVCSVVSDFK [SEQ ID NO: 301] | – | – | – | – | – | – | – | antiviral activity compared among C5A analogs derived from HCV 1a, 1b, 2a, 3a, 4a, 5a and 6a (HCV): higher antiviral activity |
| FTFWTWLEAILDLIKKHI [SP-116, FTFWTWLEAILDLIKKHI] | 4.1 | – | – | – | – | – | – | – |
| DFWSKLVYFFAEIIRFLS [SP-143, DFWSKLVYFFAEIIRFLS] | 19.5 | 49.26 | 53.07 | 79.28 | 94.07 | 99.42 | 0.0161 | % Inhibition (dengue virus; Conc. 0.98 nM): 59.95%; % Inhibition (dengue virus; Conc. 1.95 nM): -28.80%; % Inhibition (dengue virus; Conc. 3.91 nM): 42.98% |
| YNLFDLLIYIWNKIFDDY [SP-049, YNLFDLLIYIWNKIFDDY] | 1.8 | 93.03 | 100.00 | 100.00 | 100.00 | – | 0.00385 | % Inhibition (dengue virus; Conc. 0.49 nM): 24.20%; % Inhibition (dengue virus; Conc. 0.98 nM): 20.16%; % Inhibition (dengue virus; Conc. 1.95 nM): 39.14%; % Inhibition (dengue virus; Conc. 3.91 nM): 45.30% |
